Measured values taken from patent publication US20250326732A1 (Pretzel Therapeutics, Inc., priority 2021, published 2025).

Target: POLRMT (Homo sapiens (Human), UniProt O00411)
Assay: homogeneous TR-FRET assay of mitochondrial transcription (inhibition of POLRMT)
Format: biochemical
Conditions: 7.5 nM POLRMT, 15 nM TFB2M, 30 nM TFAM, 0.5 nM DNA template, 500 μM NTPs, 37° C. for 60 minutes
Procedure: The ability of some compounds of the present invention to inhibit POLRMT were determined in a homogeneous TR-FRET Assay using high-throughput screening in a 384-well plate format. […] Detection of the product is facilitated by hybridization of two DNA-oligonucleotide probes to specific and adjacent sequences within the RNA product sequence. Upon annealing of the probes, two fluorophores are coupled directly to an acceptor nucleotide probe (ATTO647, 5′), or introduced via a coupled streptavidin with a biotinylated donor nucleotide probe (Europium cryptate) that is brought into sufficient proximity to serve as a fluorescence-donor-acceptor pair. Thus, a FRET signal at 665 nm is generated upon excitation at 340 nm.
The DNA template is restriction linearized proximal to the promotor 3′-end (pUC-LSP). […] No nucleotide triphosphate mix is added to negative control samples. Microplates with compounds to be tested in the assay are prepared from 10 mM compound stocks in 100% DMSO, equal amounts of DMSO without any compound are added to positive control and negative control samples.
During the incubation, a mix of the detection reagents is prepared in a buffer such that the enzymatic reaction is terminated due to chelating of Mg-ions and increased ionic strength, containing 50 mM Tris-HCl (pH 7.5), 700 mM NaCl, 20 mM EDTA, and 0.01% (w/v) Tween-20. Europium-streptavidin is pre-incubated with a 200-fold molar excess of a random sequence oligonucleotide to block unspecific binding of oligo, for two hours at ambient temperature in the dark. Afterwards, the blocked Europium-streptavidin is kept on ice until use.
At the end of the enzymatic reaction time, 5 μL detection oligo mix in the detection buffer is added, and assay plates are mixed and kept at ambient temperature for one hour, protected from light. The concentration of the Acceptor nucleotide oligo (e.g., ATTO647N-5′-[…]-3′) and Donor nucleotide oligo (e.g., bio-5′-[…](-bio)[…]-bio-3′) in each assay well is 1 nM, and 3 nM, respectively.
After incubation with oligo mix, 5 μL of pre-blocked Europium-streptavidin reagent is dispensed to each assay well, assay plates are again mixed and kept at ambient temperature for one hour, protected from light.
The generated signal is measured with BMG Pherastar microtiter plate reader with a TRF light unit, using excitation at 340 nm, an integration time of 200 μs, and a delay time of 100 μs, before detection at 620 nm and 665 nm. The ratio of donor- and acceptor-fluorescence is used as a measure of the generated transcript product (i.e. enzymatic activity).

Chain of POLRMT (O00411 42-1230): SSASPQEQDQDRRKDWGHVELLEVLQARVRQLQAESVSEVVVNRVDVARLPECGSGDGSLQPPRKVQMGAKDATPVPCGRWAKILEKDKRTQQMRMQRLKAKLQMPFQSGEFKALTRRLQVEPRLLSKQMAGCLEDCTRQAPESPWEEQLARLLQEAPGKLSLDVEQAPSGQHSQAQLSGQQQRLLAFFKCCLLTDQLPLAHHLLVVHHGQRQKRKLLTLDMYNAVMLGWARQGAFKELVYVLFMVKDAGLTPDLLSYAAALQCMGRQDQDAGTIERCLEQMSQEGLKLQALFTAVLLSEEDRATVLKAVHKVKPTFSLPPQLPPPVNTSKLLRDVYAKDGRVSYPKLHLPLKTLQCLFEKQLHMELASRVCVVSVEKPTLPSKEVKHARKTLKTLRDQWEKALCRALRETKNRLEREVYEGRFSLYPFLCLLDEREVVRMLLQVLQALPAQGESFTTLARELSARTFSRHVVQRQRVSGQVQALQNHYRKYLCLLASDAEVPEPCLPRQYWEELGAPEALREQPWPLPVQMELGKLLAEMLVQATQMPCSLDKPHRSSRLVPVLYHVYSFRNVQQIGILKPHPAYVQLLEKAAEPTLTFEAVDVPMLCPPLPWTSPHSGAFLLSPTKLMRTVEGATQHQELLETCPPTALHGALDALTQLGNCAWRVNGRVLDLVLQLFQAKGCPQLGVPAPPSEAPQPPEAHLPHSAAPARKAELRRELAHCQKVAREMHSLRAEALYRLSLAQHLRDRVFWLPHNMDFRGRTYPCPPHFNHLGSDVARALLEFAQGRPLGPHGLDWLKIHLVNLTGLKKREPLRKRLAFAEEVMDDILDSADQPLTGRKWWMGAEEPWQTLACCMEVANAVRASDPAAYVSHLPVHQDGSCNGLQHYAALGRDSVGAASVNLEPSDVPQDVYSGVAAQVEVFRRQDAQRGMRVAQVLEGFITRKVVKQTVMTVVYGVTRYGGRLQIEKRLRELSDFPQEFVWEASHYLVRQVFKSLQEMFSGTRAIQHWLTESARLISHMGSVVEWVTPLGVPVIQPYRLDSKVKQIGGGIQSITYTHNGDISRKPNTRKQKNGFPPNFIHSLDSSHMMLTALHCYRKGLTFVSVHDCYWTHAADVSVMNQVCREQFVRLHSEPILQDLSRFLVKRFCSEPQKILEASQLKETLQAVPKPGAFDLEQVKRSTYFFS

Compared with “3-methoxy-2-((2-oxo-4-phenyl-2H-chromen-7-yl)amino)propanamide [Example 198]”, Cc1ccccc1-c1cc(=O)oc2cc([C@H]3C[C@H]3C(=O)O)ccc12 (racemic) [Example 226, (cis)-2-(2-oxo-4-(o-tolyl)-2H-chromen-7-yl)cyclopropane-1-carboxylic acid] is 5-fold lower in IC50: 2 µM for the first, 0.4 µM for the second.

Going from Cc1ccccc1-c1cc(=O)oc2cc([C@@H]3C[C@H]3C(=O)O)ccc12 (relative stereo) [Example 227, (trans)-2-(2-oxo-4-(o-tolyl)-2H-chromen-7-yl)cyclopropane-1-carboxylic acid] to CNC(=O)[C@@H]1C[C@@H]1c1ccc2c(-c3ccccc3C)cc(=O)oc2c1 (relative stereo) [Example 231, (cis)-N-methyl-2-(2-oxo-4-(o-tolyl)-2H-chromen-7-yl)cyclopropane-1-carboxamide], the IC50 falls from 3 µM to 0.4 µM (7.5-fold). The second is the more potent here.

Going from CNC(=O)[C@@H]1C[C@H]1c1ccc2c(-c3ccccc3C)cc(=O)oc2c1 (relative stereo) [Example 232, (trans)-N-methyl-2-(2-oxo-4-(o-tolyl)-2H-chromen-7-yl)cyclopropane-1-carboxamide] to Cc1ccccc1-c1cc(=O)oc2cc([C@H]3C[C@H]3C(=O)N(C)C)ccc12 (relative stereo) [Example 234, (cis)-N,N-dimethyl-2-(2-oxo-4-(o-tolyl)-2H-chromen-7-yl)cyclopropane-1-carboxamide], the IC50 rises from 2 µM to 3 µM (1.5-fold). The first is the more potent here.

Going from Cc1ccccc1-c1cc(=O)oc2cc([C@H]3C[C@H]3C(N)=O)ccc12 (relative stereo) [Example 235, (cis)-2-(2-oxo-4-(o-tolyl)-2H-chromen-7-yl)cyclopropane-1-carboxamide] to Cc1ccccc1-c1cc(=O)oc2cc([C@@H]3C[C@H]3C(=O)N(C)C)ccc12 (relative stereo) [Example 236, (trans)-N,N-dimethyl-2-(2-oxo-4-(o-tolyl)-2H-chromen-7-yl)cyclopropane-1-carboxamide], the IC50 rises from 2 µM to 7 µM (3.5-fold).

Work on Cc1ccccc1-c1cc(=O)oc2cc([C@@H]3C[C@H]3C(N)=O)ccc12 (relative stereo) [Example 238, chiral-(trans)-2-(2-oxo-4-(o-tolyl)-2H-chromen-7-yl)cyclopropane-1-carboxamide] yielded an IC50 of 3 µM.
First: Cc1ccccc1-c1cc(=O)oc2cc([C@@H]3C[C@H]3C(N)=O)ccc12 (relative stereo) [Example 239, chiral-(trans)-2-(2-oxo-4-(o-tolyl)-2H-chromen-7-yl)cyclopropane-1-carboxamide]
Second: Cc1ccccc1-c1cc(=O)oc2cc([C@@H]3C[C@H]3C(=O)N(C)C)ccc12 (relative stereo) [Example 240, chiral-(trans)-N,N-dimethyl-2-(2-oxo-4-(o-tolyl)-2H-chromen-7-yl)cyclopropane-1-carboxamide]
The IC50 of the first is 8.9-fold lower: 0.9 µM for the first, 8 µM for the second. The first is the more potent here.

First: Cc1ccccc1-c1cc(=O)oc2cc([C@@H]3C[C@H]3C(=O)N(C)C)ccc12 (relative stereo) [Example 241, chiral-(trans)-N,N-dimethyl-2-(2-oxo-4-(o-tolyl)-2H-chromen-7-yl)cyclopropane-1-carboxamide]
Second: CCOC(C)c1ccc2c(-c3ccc(F)cc3Cl)cc(=O)oc2c1 (single isomer, unassigned) [Example 41, 4-(2-chloro-4-fluorophenyl)-7-(1-ethoxyethyl)-2H-chromen-2-one]
The IC50 of the first is 5-fold higher: 5 µM for the first, 1 µM for the second.

Compared with CCOC(C)c1ccc2c(-c3ccc(F)cc3Cl)cc(=O)oc2c1 (single isomer, unassigned) [Example 42, 4-(2-chloro-4-fluorophenyl)-7-(1-ethoxyethyl)-2H-chromen-2-one], Cc1ccccc1-c1cc(=O)oc2cc(CC(C)C(=O)N3CCCCC3)ccc12 (single isomer, unassigned) [Example 62, 7-(2-methyl-3-oxo-3-(piperidin-1-yl)propyl)-4-(o-tolyl)-2H-chromen-2-one] is 75-fold lower in IC50: 6 µM for the first, 0.08 µM for the second. The second is the more potent here.

Going from Cc1ccccc1-c1cc(=O)oc2cc(CC(C)C(=O)N3CCCCC3)ccc12 (single isomer, unassigned) [Example 63, 7-(2-methyl-3-oxo-3-(piperidin-1-yl)propyl)-4-(o-tolyl)-2H-chromen-2-one] to Cc1ccccc1-c1cc(=O)oc2cc(CC(C)C(=O)N(C)C)ccc12 (single isomer, unassigned) [Example 64, N,N,2-trimethyl-3-(2-oxo-4-(o-tolyl)-2H-chromen-7-yl)propanamide], the IC50 falls from 3 µM to 0.3 µM (10-fold).

Going from Cc1ccccc1-c1cc(=O)oc2cc(CC(C)C(=O)N(C)C)ccc12 (single isomer, unassigned) [Example 65, N,N,2-trimethyl-3-(2-oxo-4-(o-tolyl)-2H-chromen-7-yl)propanamide] to CNC(=O)C(C)Cc1ccc2c(-c3ccccc3C)cc(=O)oc2c1 (single isomer, unassigned) [Example 66, N,2-dimethyl-3-(2-oxo-4-(o-tolyl)-2H-chromen-7-yl)propanamide], the IC50 falls from 17 µM to 0.5 µM (34-fold).

First: CNC(=O)C(C)Cc1ccc2c(-c3ccccc3C)cc(=O)oc2c1 (single isomer, unassigned) [Example 67, N,2-dimethyl-3-(2-oxo-4-(o-tolyl)-2H-chromen-7-yl)propanamide]
Second: Cc1ccccc1-c1cc(=O)oc2cc(CC(C)C(N)=O)ccc12 (single isomer, unassigned) [Example 68, 2-methyl-3-(2-oxo-4-(o-tolyl)-2H-chromen-7-yl)propanamide]
The IC50 of the first is 10-fold higher: 6 µM for the first, 0.6 µM for the second.

Going from Cc1ccccc1-c1cc(=O)oc2cc(CC(C)C(N)=O)ccc12 (single isomer, unassigned) [Example 69, 2-methyl-3-(2-oxo-4-(o-tolyl)-2H-chromen-7-yl)propanamide] to Cc1ccccc1-c1cc(=O)oc2cc(C(C)CC(=O)N3CCC[C@H](C(=O)O)C3)ccc12 (single isomer, unassigned) [Example 81], the IC50 falls from 5 µM to 1 µM (5-fold). The second is the more potent here.

Going from Cc1ccccc1-c1cc(=O)oc2cc(C(C)CC(=O)N3CCC[C@H](C(=O)O)C3)ccc12 (single isomer, unassigned) [Example 82] to Cc1ccccc1-c1cc(=O)oc2cc(CC(C)C(=O)N3CCC[C@H](C#N)C3)ccc12 (single isomer, unassigned) [Example 83], the IC50 falls from 5 µM to 0.06 µM (83-fold).

First: Cc1ccccc1-c1cc(=O)oc2cc(CC(C)C(=O)N3CCC[C@H](C#N)C3)ccc12 (single isomer, unassigned) [Example 84]
Second: Cc1ccccc1-c1cc(=O)oc2cc(CC(C)C(=O)N3CCC[C@H](S(C)(=O)=O)C3)ccc12 (single isomer, unassigned) [Example 85]
The IC50 of the first is 110-fold higher: 32 µM for the first, 0.3 µM for the second. The second is the more potent here.

Compared with Cc1ccccc1-c1cc(=O)oc2cc(CC(C)C(=O)N3CCC[C@H](S(C)(=O)=O)C3)ccc12 (single isomer, unassigned) [Example 86], CCOC(=O)[C@H]1CCCN(C(=O)C(C)Cc2ccc3c(-c4ccccc4C)cc(=O)oc3c2)C1 (single isomer, unassigned) [Example 87] is 1.8-fold higher in IC50: 5 µM for the first, 9 µM for the second.

CCOC(=O)[C@H]1CCCN(C(=O)C(C)Cc2ccc3c(-c4ccccc4C)cc(=O)oc3c2)C1 (single isomer, unassigned) [Example 88] and Cc1ccccc1-c1cc(=O)oc2cc(CC(C)C(=O)N3CCC[C@H](C(N)=O)C3)ccc12 (single isomer, unassigned) [Example 89] are within 1.5-fold of each other in IC50: 0.09 µM for the first, 0.1 µM for the second.

Compared with Cc1ccccc1-c1cc(=O)oc2cc(CC(C)C(=O)N3CCC[C@H](C(N)=O)C3)ccc12 (single isomer, unassigned) [Example 90], CNC(=O)[C@H]1CCCN(C(=O)C(C)Cc2ccc3c(-c4ccccc4C)cc(=O)oc3c2)C1 (single isomer, unassigned) [Example 92] is 40-fold lower in IC50: 8 µM for the first, 0.2 µM for the second.

First: CNC(=O)[C@H]1CCCN(C(=O)C(C)Cc2ccc3c(-c4ccccc4C)cc(=O)oc3c2)C1 (single isomer, unassigned) [Example 93]
Second: Cc1ccccc1-c1cc(=O)oc2cc(CC(C)C(=O)N3CCC(C(=O)O)CC3)ccc12 (single isomer, unassigned) [Example 94, 1-(2-methyl-3-(2-oxo-4-(o-tolyl)-2H-chromen-7-yl)propanoyl)piperidine-4-carboxylic acid]
The IC50 of the first is 85-fold higher: 17 µM for the first, 0.2 µM for the second.

In the case of Cc1ccccc1-c1cc(=O)oc2cc(CC(C)C(=O)N3CCC(C(=O)O)CC3)ccc12 (single isomer, unassigned) [Example 95, 1-(2-methyl-3-(2-oxo-4-(o-tolyl)-2H-chromen-7-yl)propanoyl)piperidine-4-carboxylic acid], the IC50 is reported as 4 µM.
